Laboratory results taken from PubChem BioAssay (NCI).
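Growth conditions: 96-well plates. Treatment: test compound, 48 hours, 5 concentrations. Analysis: linear interpolation between bracketing concentrations; unreached endpoints set to highest concentration. GI50 is the concentration that inhibits growth by half. TGI: total growth inhibition.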

Test system: SW-620 colon
Assay: NCI tumour cell line growth inhibition, 48 h

**Q.** Which results are given for CCCSc1cc(Cl)nc(N)n1?
**A.** GI50: > 100 µM; TGI: > 100 µM

**Q.** With CN1CCN(Cc2ccc(NC(=O)c3ccc(C(C)(C)C)c(C#Cc4cnc5cccnn45)c3)cc2C(F)(F)F)CC1 as the compound, how does the GI50 read?
**A.** 2.04 µM

**Q.** What about the TGI of the same compound?
**A.** 4.09 µM

**Q.** C=CC(=O)N1CCN(c2ncnc3c(F)c(-c4c(O)cccc4F)c(Cl)cc23)CC1 was tested. Which GI50 did it give?
**A.** 14 µM

**Q.** And the TGI?
**A.** 31.9 µM

**Q.** For C=CCOc1c(Br)cc(Br)cc1Br, which GI50 is on record?
**A.** 22.6 µM

**Q.** And the TGI?
**A.** 89.4 µM

**Q.** CC(=O)n1c(-c2ccc(Cl)cc2)nc2c(c1=O)C(c1ccc(Cl)cc1)c1sc3c(Cl)cccc3c1O2 (stereo not drawn) was tested. Which GI50 did it give?
**A.** 0.388 µM

**Q.** And the TGI?
**A.** 1.68 µM

**Q.** With CN(C)CCNC(=O)Nc1c(C#N)[n+]([O-])c2cc(Cl)c(Cl)cc2[n+]1[O-] as the compound, how does the GI50 read?
**A.** 17.4 µM

**Q.** And the TGI?
**A.** 69.7 µM

**Q.** Which TGI does the source give for COc1ccccc1C(=O)c1ccc2ccccc2c1 here?
**A.** 75.2 µM

**Q.** CS(=O)(=O)Nc1ccc(-c2ccc3c(NC(=O)C4CC4)n[nH]c3c2)cc1 was tested. Which GI50 did it give?
**A.** > 25 µM

**Q.** And the TGI?
**A.** > 25 µM

**Q.** How did the GI50 turn out when C=C1C(=O)O[C@H]2[C@H]1CC/C(COC(=O)c1cc3cc(OC)ccc3[nH]1)=C\CC[C@@]1(C)O[C@@H]21 was run?
**A.** 0.647 µM

**Q.** What about the TGI of the same compound?
**A.** 2.34 µM

**Q.** Which GI50 does the source give for COCC(=O)OC1CCn2c1nc1c2C(=O)C(C)=C(NC(C)=O)C1=O (stereo not drawn) here?
**A.** 3.43 µM

**Q.** What about the TGI of the same compound?
**A.** 19.8 µM

**Q.** What does the source list for COc1ccc(C2C(C#N)=C(N)OC3=C2CCCc2ccc(F)cc23)cc1OC (stereo not drawn)?
**A.** GI50: 12.5 µM; TGI: 30.3 µM

**Q.** Which TGI does the source give for Nc1ccc(SC23CC4CC(CC(C4)C2)C3)cc1 here?
**A.** > 100 µM

**Q.** Which results are given for CCOC(=O)[C@@H](C)C[C@H](Cc1ccccc1)NC(=O)c1csc([C@@H](C[C@H](C(C)C)N(C)C(=O)[C@@H](NC(=O)[C@H]2CCCCN2C)C(C)(C)C)OC(C)=O)n1?
**A.** GI50: < 0.00167 µM; TGI: > 16.7 µM

**Q.** What does the source list for COc1ccc2c(c1)C=CC(C#N)N2C(=O)c1ccccc1 (stereo not drawn)?
**A.** GI50: < 0.01 µM; TGI: > 100 µM

Test system: OVCAR-5 ovarian
Assay: NCI tumour cell line growth inhibition, 48 h

**Q.** For CCCSc1cc(Cl)nc(N)n1, which GI50 is on record?
**A.** > 100 µM

**Q.** What about the TGI of the same compound?
**A.** > 100 µM

**Q.** How did the GI50 turn out when CN1CCN(Cc2ccc(NC(=O)c3ccc(C(C)(C)C)c(C#Cc4cnc5cccnn45)c3)cc2C(F)(F)F)CC1 was run?
**A.** 2.71 µM

**Q.** What about the TGI of the same compound?
**A.** 7.18 µM

**Q.** For C=CC(=O)N1CCN(c2ncnc3c(F)c(-c4c(O)cccc4F)c(Cl)cc23)CC1, which GI50 is on record?
**A.** 18.4 µM

**Q.** What about the TGI of the same compound?
**A.** 34.1 µM

**Q.** Which GI50 does the source give for C=CCOc1c(Br)cc(Br)cc1Br here?
**A.** 28.2 µM

**Q.** And the TGI?
**A.** > 100 µM

**Q.** CC(=O)n1c(-c2ccc(Cl)cc2)nc2c(c1=O)C(c1ccc(Cl)cc1)c1sc3c(Cl)cccc3c1O2 (stereo not drawn) was tested. Which GI50 did it give?
**A.** 1.72 µM

**Q.** What about the TGI of the same compound?
**A.** 4.31 µM

**Q.** Which results are given for CN(C)CCNC(=O)Nc1c(C#N)[n+]([O-])c2cc(Cl)c(Cl)cc2[n+]1[O-]?
**A.** GI50: 87.1 µM; TGI: > 100 µM

**Q.** With COc1ccccc1C(=O)c1ccc2ccccc2c1 as the compound, how does the TGI read?
**A.** > 100 µM

**Q.** Which GI50 does the source give for CS(=O)(=O)Nc1ccc(-c2ccc3c(NC(=O)C4CC4)n[nH]c3c2)cc1 here?
**A.** > 25 µM

**Q.** What about the TGI of the same compound?
**A.** > 25 µM

**Q.** With C=C1C(=O)O[C@H]2[C@H]1CC/C(COC(=O)c1cc3cc(OC)ccc3[nH]1)=C\CC[C@@]1(C)O[C@@H]21 as the compound, how does the GI50 read?
**A.** 1.77 µM

**Q.** And the TGI?
**A.** 3.76 µM

**Q.** What does the source list for COCC(=O)OC1CCn2c1nc1c2C(=O)C(C)=C(NC(C)=O)C1=O (stereo not drawn)?
**A.** GI50: 5.91 µM; TGI: 21.6 µM

**Q.** What does the source list for COc1ccc(C2C(C#N)=C(N)OC3=C2CCCc2ccc(F)cc23)cc1OC (stereo not drawn)?
**A.** GI50: 24.7 µM; TGI: 65.2 µM

**Q.** Nc1ccc(SC23CC4CC(CC(C4)C2)C3)cc1 was tested. Which TGI did it give?
**A.** > 100 µM

**Q.** With CCOC(=O)[C@@H](C)C[C@H](Cc1ccccc1)NC(=O)c1csc([C@@H](C[C@H](C(C)C)N(C)C(=O)[C@@H](NC(=O)[C@H]2CCCCN2C)C(C)(C)C)OC(C)=O)n1 as the compound, how does the GI50 read?
**A.** < 0.00167 µM

**Q.** And the TGI?
**A.** > 16.7 µM

**Q.** Which TGI does the source give for COc1ccc2c(c1)C=CC(C#N)N2C(=O)c1ccccc1 (stereo not drawn) here?
**A.** > 100 µM

Test system: SF-268 CNS
Assay: NCI tumour cell line growth inhibition, 48 h

**Q.** With CCCSc1cc(Cl)nc(N)n1 as the compound, how does the GI50 read?
**A.** > 100 µM

**Q.** And the TGI?
**A.** > 100 µM

**Q.** For CN1CCN(Cc2ccc(NC(=O)c3ccc(C(C)(C)C)c(C#Cc4cnc5cccnn45)c3)cc2C(F)(F)F)CC1, which GI50 is on record?
**A.** 1.87 µM

**Q.** And the TGI?
**A.** 3.82 µM

**Q.** With C=CC(=O)N1CCN(c2ncnc3c(F)c(-c4c(O)cccc4F)c(Cl)cc23)CC1 as the compound, how does the GI50 read?
**A.** 11.5 µM

**Q.** What about the TGI of the same compound?
**A.** 37.2 µM

**Q.** How did the GI50 turn out when C=CCOc1c(Br)cc(Br)cc1Br was run?
**A.** 21.1 µM

**Q.** And the TGI?
**A.** > 100 µM

**Q.** For CC(=O)n1c(-c2ccc(Cl)cc2)nc2c(c1=O)C(c1ccc(Cl)cc1)c1sc3c(Cl)cccc3c1O2 (stereo not drawn), which GI50 is on record?
**A.** 0.684 µM

**Q.** And the TGI?
**A.** 3.24 µM

**Q.** For CN(C)CCNC(=O)Nc1c(C#N)[n+]([O-])c2cc(Cl)c(Cl)cc2[n+]1[O-], which GI50 is on record?
**A.** 9.47 µM

**Q.** And the TGI?
**A.** > 100 µM
